In data set [1] the target is T1, P2X purinoceptor 7 (Homo sapiens, UniProt Q99572).
T1 sequence (Q99572 whole entry): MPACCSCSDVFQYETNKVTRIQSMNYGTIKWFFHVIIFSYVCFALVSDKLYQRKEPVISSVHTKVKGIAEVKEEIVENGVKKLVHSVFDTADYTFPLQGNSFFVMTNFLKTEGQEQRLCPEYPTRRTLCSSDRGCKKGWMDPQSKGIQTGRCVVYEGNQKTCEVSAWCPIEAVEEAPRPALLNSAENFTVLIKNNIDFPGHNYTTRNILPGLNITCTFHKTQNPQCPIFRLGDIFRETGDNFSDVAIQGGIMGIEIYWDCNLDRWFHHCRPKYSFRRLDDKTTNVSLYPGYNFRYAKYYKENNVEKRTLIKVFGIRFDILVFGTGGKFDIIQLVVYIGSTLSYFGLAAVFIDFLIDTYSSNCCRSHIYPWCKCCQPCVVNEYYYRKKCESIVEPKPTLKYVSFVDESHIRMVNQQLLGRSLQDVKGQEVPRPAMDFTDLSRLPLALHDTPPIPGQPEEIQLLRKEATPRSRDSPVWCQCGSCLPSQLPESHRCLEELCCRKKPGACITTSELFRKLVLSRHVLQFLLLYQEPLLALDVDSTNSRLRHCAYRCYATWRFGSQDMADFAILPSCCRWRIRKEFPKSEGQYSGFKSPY
The data set can be described thus: Antagonist activity at human P2X7 receptor expressed in HEK293 cells assessed as inhibition of BzATP-induced calcium influx. In kind it is functional, cell-based.

Data set [2] addresses T2, P2X purinoceptor 7 (Rattus norvegicus, UniProt Q64663).
T2 sequence (Q64663 whole entry): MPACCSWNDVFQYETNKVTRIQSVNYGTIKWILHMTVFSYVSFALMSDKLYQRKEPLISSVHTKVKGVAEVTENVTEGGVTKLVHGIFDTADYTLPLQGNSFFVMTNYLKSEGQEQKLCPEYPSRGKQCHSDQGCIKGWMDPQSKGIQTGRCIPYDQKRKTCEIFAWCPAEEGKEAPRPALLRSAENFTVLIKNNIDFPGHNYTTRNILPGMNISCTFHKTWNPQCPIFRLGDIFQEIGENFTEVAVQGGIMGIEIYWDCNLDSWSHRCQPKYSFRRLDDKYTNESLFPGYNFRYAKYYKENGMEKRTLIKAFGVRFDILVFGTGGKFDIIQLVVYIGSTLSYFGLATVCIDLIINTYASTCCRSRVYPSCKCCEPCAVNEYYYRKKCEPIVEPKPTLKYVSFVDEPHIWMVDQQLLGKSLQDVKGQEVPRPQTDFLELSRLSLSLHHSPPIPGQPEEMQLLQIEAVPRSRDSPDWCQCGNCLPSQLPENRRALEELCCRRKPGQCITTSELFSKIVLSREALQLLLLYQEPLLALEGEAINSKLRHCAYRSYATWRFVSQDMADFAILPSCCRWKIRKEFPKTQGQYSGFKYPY
Put plainly: Activity at rat P2X7 receptor expressed in HEK cells assessed as effect on BzATP-induced ethidium uptake. In kind it is cell-based, HEK293.

Data set [3] concerns the target T1, P2X purinoceptor 7. Put plainly: Antagonist activity at P2X7 receptor in human THP1 cells assessed as inhibition of BzATP-induced ethidium uptake. In kind it is functional, cell-based, THP-1.
Data set [4] has as its target T1, P2X purinoceptor 7. Put plainly: Antagonist activity at P2X7 receptor in human lymphocytes assessed as inhibition of ATP-induced Ba2+ influx. In kind it is functional, cell-based.
The target of data set [5] is T1, P2X purinoceptor 7. The data set can be described thus: Antagonist activity at P2X7 receptor in human THP1 cells assessed as effect on BzATP-induced Yo-Pro uptake. It counts as functional, cell-based, THP-1.
Data set [6] addresses T3, P2X purinoceptor 7 (Homo sapiens) (UniProt Q99572).
T3 sequence (whole entry): T1 sequence (Q99572 whole entry)
Put plainly: Inhibition of human P2X7 receptor in human PBMC assessed as inhibition of BzATP-induced IL1-beta release at 0.3 uM.

The target of data set [7] is T3, P2X purinoceptor 7 (Homo sapiens). As to conditions: HEK293, at 3 µM.
The nature of data set [8]: Metabolic stability in rat hepatocytes assessed as intrinsic clearance assessed per million cells. In kind it is ADME, cell-based, Liver, Hepatocyte.
For data set [9], the target named is T1, P2X purinoceptor 7. The data set can be described thus: Antagonist activity at human P2X7 receptor expressed in human U373 cells assessed as inhibition of BzATP-induced Yo-Pro uptake. In kind it is functional, cell-based, U-373MG ATCC.
The subject of data set [10] is Rattus norvegicus. Put plainly: Antiinflammatory activity in po dosed rat acute inflammatory pain model assessed as inhibition of FCA-induced weight bearing capacity. In kind it is functional.
In data set [11] the test system is Rattus norvegicus. Put plainly: Analgesic activity in po dosed rat model of joint pain assessed as inhibition of FCA-induced weight bearing capacity administered twice daily for 5 days. It counts as functional. To be noted: 120 h.
The subject of another data set is Mus musculus. The data set can be described thus: In vivo receptor activity at P2X7 receptor in mouse model assessed as ATP-induced IL1-beta release. In kind it is functional.
Data set [12] is described as follows: Metabolic stability in human liver microsomes assessed as half life. It counts as ADME, Microsome.
Data set [13] is described as follows: Oral bioavailability in rat. It counts as ADME, organism-based. To be noted: in vivo.

Molecules are shown by their SMILES.

Turning to `CN([C@@H](Cc1ccc(OS(=O)(=O)c2cccc3cnccc23)cc1)C(=O)N1CCN(Cc2ccccc2)CC1)S(=O)(=O)c1cccc2cnccc12`, the IC50 at P2X purinoceptor 7 [1] was 20 nM.
As for `O=C(NNc1cccc2ncccc12)C12CC3CC(CC(C3)C1)C2`, the values for the IC50 on P2X purinoceptor 7 [2] and on P2X purinoceptor 7 [3] were 39.8 nM and 10 nM, respectively.
As for `O=C(CNS(=O)(=O)c1cccc2cnccc12)N1CCN(c2ccccc2F)CC1`, the IC50 at P2X purinoceptor 7 [1] was 12.6 nM.
For `CN([C@@H](Cc1ccc(OS(=O)(=O)c2cccc3cnccc23)cc1)CN1CCN(c2ccccc2)CC1)S(=O)(=O)c1cccc2cnccc12`, the IC50 at P2X purinoceptor 7 [4] was 15.8 nM.
`CN([C@@H](Cc1ccc(OS(=O)(=O)c2cccc3cnccc23)cc1)C(=O)N1CCC(Cc2ccccc2)CC1)S(=O)(=O)c1cccc2cnccc12`: the IC50 at P2X purinoceptor 7 [1] was 63.1 nM.
For `Cc1ccc(-c2ccc(Cl)c(C(=O)NCC3(O)CCCC(C)(C)C3)c2)nc1` (centres undefined), the IC50 on P2X purinoceptor 7 [5] is 10 nM.
On to `O=C(CC12CC3CC(CC(C3)C1)C2)Nc1ncnc2c1CCN(S(=O)(=O)c1ccc(F)cc1F)C2`, for which the inhibition in data set [6] is > 75%.
Consider `COc1cccc(NC(=O)c2cccc(Cc3c(C)nn(CCO)c3-c3ccccc3)c2)c1`, for which the IC50 on P2X purinoceptor 7 [1] was ≤ 200 nM.
On the same count and under the same terms, in the case of `CN([C@@H](Cc1ccc(OS(=O)(=O)c2cccc3cnccc23)cc1)C(=O)N1CCN(c2ccc(Cl)cc2)CC1)S(=O)(=O)c1cccc2cnccc12` it was 100 nM.
As to `O=C(NCC1(O)CCCCCC1)c1cc(-c2cc[nH]n2)ccc1Cl`, the IC50 at P2X purinoceptor 7 [5] was 200 nM.
With `CN([C@@H](Cc1ccc(OS(=O)(=O)c2cccc3cnccc23)cc1)C(=O)N1CCN(c2ccccc2)CC1)S(=O)(=O)c1cccc2cnccc12`, the IC50 on P2X purinoceptor 7 [4] was 12.6 nM; on P2X purinoceptor 7 [1] it was 50.1 nM. This compound also returned an inhibition in data set [7] of 85%.
`O=C(NCC12CC3CC(CC(C3)C1)C2)c1ccccc1Cl`: the hepatocyte CLint in data set [8] is > 100 µL/min/1e6 cells.
For `CN([C@@H](Cc1ccc(OS(=O)(=O)c2cccc3cnccc23)cc1)C(=O)N1CCN(CCc2ccccc2)CC1)S(=O)(=O)c1cccc2cnccc12`, at P2X purinoceptor 7 [1], the IC50 was 631 nM.
For `Cc1ccccc1Nc1ncnn1-c1cccc(Cl)c1Cl`, the values for the IC50 at P2X purinoceptor 7 [2] and on P2X purinoceptor 7 [3] were 251 nM and 20 nM, respectively.
Consider `Fc1cccc(CNC2=N[C@@H](c3ccccc3)[C@@H](c3ccccc3)N2)c1`, for which, on P2X purinoceptor 7 [9], the half-inhibitory concentration (IC50) is 100 nM.
As for `Clc1cccc(-n2ncnc2NCc2cccnc2N2CCCC2)c1Cl`, the IC50 at P2X purinoceptor 7 [2] is 25.1 nM.
For the compound `CN([C@@H](Cc1ccc(OS(=O)(=O)c2cccc3cnccc23)cc1)C(=O)N1CCN(c2ccc(F)cc2)CC1)S(=O)(=O)c1cccc2cnccc12`, the IC50 at P2X purinoceptor 7 [1] was 1.26 nM.
On to `CN1C(=O)CCC1C(=O)NCc1cccc(C(F)(F)F)c1Cl` (centres undefined), for which the ED50 in the data set on Rattus norvegicus [10] and in the data set with Rattus norvegicus [11] was < 20 mg/kg in each case.
On to `Clc1cccc(-n2cnnc2NCc2cccnc2N2CCCC2)c1Cl`, for which the results for the IC50 at P2X purinoceptor 7 [2] and on P2X purinoceptor 7 [3] were 12.6 nM and 15.8 nM, respectively.
With `O=C(NCC1(O)CCCCCC1)c1cc(-n2ncc(=O)[nH]c2=O)ccc1Cl`, the ED50 in the data set on Mus musculus was 2 mg/kg. Further, the IC50 on P2X purinoceptor 7 [3] was 100 nM.
As to `Clc1cccc(CCC2=N[C@H](c3ccccc3)[C@H](c3ccccc3)N2)c1`, on P2X purinoceptor 7 [9], the IC50 was 126 nM.
Take `CC(C)(C)OC(=O)NCC(=O)N1CCc2c(ncnc2NCC(O)C23CC4CC(CC(C4)C2)C3)C1` (centres undefined): the inhibition in data set [6] was > 75%.
Regarding `c1ccc(CCCC2=N[C@H](c3ccccc3)[C@H](c3ccccc3)N2)cc1`, the IC50 at P2X purinoceptor 7 [9] was 501 nM.
On to `O=C(Cc1ccc(C(F)(F)F)c(F)c1)Nc1c(Cl)ccc2c(=O)n(CCO)ccc12`, for which the half-life in data set [12] is 3.7 h. In [13], the bioavailability is > 75%. On P2X purinoceptor 7 [3], the IC50 was 6.31 nM.
Take `O=C(CNS(=O)(=O)c1cccc2cnccc12)N1CCN(Cc2ccccc2)CC1`: the IC50 at P2X purinoceptor 7 [1] was 31.6 nM.

These data come from ChEMBL document CHEMBL1151820, “Antagonists of the P2X(7) receptor. From lead identification to drug development” (J Med Chem, 2009).
